“Also recorded” adds a separate entry of the source. Where two headings read alike, the source gives them in different places.
Legend:
[1] = tested on: DFMO-induced thrombocytopenia; details: rat, in vivo
[2] = tested on: platelet counts / host toxicity; experiment: DFMO toxicity, continuous i.v. infusion for 12 days in rats (FIG. 3); format: in vivo
Text: FIG. 3. […] Bars indicate standard deviation.
In the above described rat model, a continuous infusion of DFMO was given through a central venous catheter.

MCA sarcoma = experiment: DFMO effect on growth of MCA sarcoma; format: in vivo
[3] = tested on: platelet counts / host toxicity; design: species or system human (patients with advanced colorectal carcinoma); details: human, in vivo
Text: FIG. 4. Platelet counts plotted against days of continuous i.v. DFMO infusion in patients with advanced colorectal carcinoma. […] The paired points are connected by a straight line.
There was no incidence of nausea, vomiting or diarrhea.

RBC putrescine levels = experiment: RBC putrescine in tumor-bearing and non tumor-bearing rats infused with feeding solutions (Table V); details: vs chow or essential amino acids only
Protocol: Another experiment which utilized formulations containing amino acid precursors of RBC polyamines, compared the response of tumor-bearing rats (TB) to non tumor-bearing rats (NTB). The study was performed basically in the manner described above with the following indicated differences. […] Chow rats (C) were fed chow with no i.v. infusion.
Where N is the number of rats included in the study, PUT is RBC levels (nm/g/ml, means±SD) of putrescine determined by HPLC.

[4] = tested on: polyamine levels (erythrocyte and tumor); experiment: RBC and tumor polyamine levels in tumor-bearing rats infused with amino acid solutions (Example II, Table IV); format: in vivo, male Fisher 344 rats; details: infusion alone, not in combination with essential amino acids; experimental tumor system
Text: A methylcholanthrene-induced fibrosarcoma (0.17 g) was implanted as a brei into the right flank under anesthesia and the animals were fed a chow diet for 21 days. When the tumors were at least 1.0 cm in width, two-dimensional measurements with calipers were instituted and the equation, length (cm)×(width [cm])^2 ×1/2=grams of tumor tissue, was used to estimate tumor weight. […] The animals were then allowed to recover overnight and continuous infusions were started the next morning. […] Nephramine is a parenteral amino acid solution consisting of eight essential amino acids and histidine. After 6 days of continuous infusion, the animals were sacrificed by aortic bleeding. Liver and tumor were excised and weighed and kept frozen at -70° C. until assays were done. Only viable, nonnecrotic tumor tissue was saved and assayed.
Preparation of tumor tissue for polyamine assay was done in the following manner. Tumor tissue weighing 0.5 to 1.5 g was cut into small pieces and put into a disposable tube (16×100 mm). Ice-cold 4% sulfosalicylic acid was then added at 2 ml/g wet tissue. This mixture was homogenized in an ice bath for 40 seconds using the Brinkman Polytron homogenizer (P10ST generator set at 8.5). The suspension was centrifuged at 100,000 g for 30 minutes and the resulting clear supernatant was analyzed for polyamines on a Durrum D-500 amino acid analyzer.

[5] = tested on: DFMO-induced thrombocytopenia; experiment: Influence of ornithine co-administration on DFMO-induced thrombocytopenia in the rat (Table VI); details: 12 days continuous infusion

NCCCC(N)(C(=O)O)C(F)F (centres unmarked) [DFMO, Difluoromethylornithine]
Platelets [1]: 409 ± 127 × 10^3 /cu. mm | platelet suppression / change in platelet count [1]: significant decrease in platelet count as compared with the saline treatment | clinical toxicity ([2]; 12 day study): no significant clinical toxicity | White cell count and hematocrit changes ([2]; rat, in vivo): not significantly altered | tumor regression (MCA sarcoma; MCA sarcoma): does not produce tumor regression | growth rate of an MCA sarcoma (MCA sarcoma; in vivo): reduces the growth rate | decrease in tumor putrescine levels (tumor putrescine levels; DFMO infusion, rat-tumor model): 90% | peripheral platelet counts (tumor putrescine levels; rat, in vivo): without suppressing peripheral platelet counts | White cell count [3]: not affected by either dose | decreased hearing acuity (patients) [3]: two patients | hematocrit [3]: Significant suppression of the hematocrit | nausea, vomiting or diarrhea [3]: no incidence | platelet suppression [3]: platelet suppression is the major limiting host toxicity | platelet suppression, 8 g compared with 6 g dose [3]: significantly greater platelet suppression at the 8 g dose

N=C(N)NCCC[C@H](N)C(=O)O [arginine]
increase in RBC putrescine levels in NTB rats (RBC putrescine levels): significantly greater (p<0.05) | blood polyamine levels [4]: has not produced elevated blood polyamine levels

NCCC[C@H](N)C(=O)O [ornithine]
platelet suppression / change in platelet count [5]: blocked platelet suppression; also recorded: significant reversal in the platelet suppression

Reference: patent publication US5189025A, “Methods for the treatment of malignant disease in patients using citrulline containing amino acid solutions” (priority 1990, dated 1993)
